In data set [1] the test system is mitochondria collected from a rat. Put plainly: ReMI metabolic imaging in the presence of mitochondria (phantom tubes). Format: in vitro ADME. The note with it: mitochondria fractions of various concentrations. How it is done:
The ReMI experiment was conducted by using a DNP-MRI system manufactured at Kyushu University. The DNP-MRI system was constituted by using an external magnet for an EPR device (JES-ES20, JEOL Ltd.) and two axis field gradient coils for CW-EPR imaging. A resonator was constituted of a surface coil for ESR irradiation, an NMR cross coil within a saddle, and a solenoid for transmission and signal reception. An ESR irradiation coil was disposed between two NMR coils. […] A surface coil (diameter: 20 mm) was used for ESR irradiation, and an NMR coil assembly was constituted of an NMR transmission saddle coil (90 mm i.d., 175 mm in length) and a solenoid reception coil (40 mm i.d., 60 mm in length) having a bandwidth of 1 kHz. The maximum transmission power was 100 W. The ReMI experiment was conducted by a spin echo method. The ReMI experiment was conducted under the following conditions: EPR irradiation power, 12 W; flip angle, 90 degrees; TEPR×repetition time (TR)×echo time (TE)=500×1000×40 ms; average number=1; slice thickness, 30 mm; and a 64-phase modulation step. For the image field (32×32 mm), 64×64 matrix was used.
To a phantom tube filled with mitochondria collected from a rat was added FADH or CoQ0H in an experiment. […] The metabolic rates (decreasing rates) of FADH and CoQ0H were calculated from changes in the first four image intensities after the reaction with mitochondria.

Another data set has as its system C57BL6 mice. Put plainly: Metabolic imaging in mice using sequential ReMI. The data set is classed as in vivo. The source says:
Female C57BL6 mice (5 weeks old) were purchased from Japan SLC, Inc. (Hamamatsu, Japan) and acclimated for one week before the experiment. Mice were 6 to 8 weeks old at the time of the experiment (body weight: 20-30 g), and five mice were kept in each cage in a room that was adjusted to a 24-hour cycle rhythm, wherein the temperature and moisture of the room were also adjusted. Food and water were given ad libitum. All the procedures and animal care were approved by the Animal Experiment Ethics Committee of Kyushu University and carried out in accordance with guidelines for animal experiments established by Kyushu University.
Mice were anesthetized with 2% isoflurane in the FADH experiment or with urethane (2 g/kg) in the CoQ0H experiment and immobilized with a skin adhesive tape, wherein the stomach was placed to the lower side. During the experiment, the temperature of mice was kept at 37+/−1° C. with a warm current of air. Subsequently, mice were placed in a resonator and ReMI measurement was started. ReMI images of the lower abdominal region were examined after administering an 8 mM CoQ0 alkaline solution (800 μL) to the rectum or administering an FAD/NADH solution intramuscularly.
ReMI images were obtained by using a DNP-MRI system manufactured at Kyushu University in an experiment using FADH and a Philips prototype system in an experiment using CoQ0. The ReMI experiment was conducted using the abovementioned parameters. Radical metabolic images (redox maps) were obtained by calculating changes in ReMI intensity in each pixel among the first four ReMI images (from a semi-logarithmic plot line of each pixel on sequential images).

Take FADH: in data set [1] (calculated from first four image intensities), the “redox map (intensity declining speed)” value is given as “no change”. Also, the “change in ReMI image intensity over time after reaction with mitochondria” value in data set [1] (images every two minutes, EPR irradiation 572.5 MHz) is “no reaction with mitochondria”. Moreover, the “distribution in fusion images of MRI and ReMI” value with C57BL6 mice (FADH intramuscular, CoQ0H rectal) was “site-specifically distributed in the legs”. The “pharmacokinetic map (decreasing rate)” value in the data set on C57BL6 mice (calculated from first four ReMI images) is reported as “constant”. Also, the “metabolism in the muscle by ReMI scanning” value in the data set with C57BL6 mice (intramuscular administration) is “metabolized slowly”. The “ReMI image intensity during the test period” value in the data set on C57BL6 mice (intramuscular administration in both legs, imaging every two minutes, 14 minutes) is on record as “stable”.

Values taken from patent US20160216351A1, “METHOD FOR DETECTING OXIDATION/REDUCTION REACTION IN VIVO” (KYUSHU UNIVERSITY, NATIONAL UNIVERSITY CORPORATION, priority 2013, published 2016).
